Laboratory results from patent US20260083704A1, “LXR MODULATORS WITH BICYCLIC CORE MOIETY FOR TREATING DYSLIPIDEMIAS” (OrsoBio, Inc., priority 2022, published 2026).

Assays:
[1] = target: T1, GST-LXRβ ligand-binding domain (Homo sapiens, UniProt P55055); test: TR-FRETβ activity assay (NCoA3 coactivator peptide recruitment); assay type: biochemical; conditions: 1 μM 24(S)-25-epoxycholesterol prestimulation
T1 construct: amino acids 156-461; NP009052; made in house; host or cells: E. coli
T1 sequence (P55055 156-460 limits assumed): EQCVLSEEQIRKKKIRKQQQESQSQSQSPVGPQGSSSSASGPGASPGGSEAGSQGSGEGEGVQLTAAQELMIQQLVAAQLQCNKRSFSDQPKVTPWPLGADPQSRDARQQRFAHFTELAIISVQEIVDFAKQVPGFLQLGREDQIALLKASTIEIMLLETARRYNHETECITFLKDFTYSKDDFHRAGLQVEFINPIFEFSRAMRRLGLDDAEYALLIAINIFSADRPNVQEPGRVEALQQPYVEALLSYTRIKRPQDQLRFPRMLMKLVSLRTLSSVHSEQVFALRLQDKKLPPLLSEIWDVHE
Protocol: Recombinant GST-LXRβ ligand-binding domain (LBD; amino acids 156-461; NP009052; SEQ ID NO:4) was expressed in E. coli and purified via gluthatione-sepharose affinity chromatography. N-terminally biotinylated NCoA3 coactivator peptide (SEQ ID NO:7) was chemically synthesized (Eurogentec). Assays were done in 384 well format (final assay volume of 25 μL/well) in a Tris/HCl buffer (pH 6.8) containing KCl, bovine serum albumin, Triton-X-100 and 1 μM 24(S)-25-epoxycholesterol as LXR-prestimulating agonist. Assay buffer was provided and test articles (potential LXR inverse agonists) were titrated to yield final assay concentrations of 50 μM, 16.7 μM, 5.6 μM, 1.9 μM, 0.6 μM, 0.2 μM, 0.07 μM, 0.02 μM, 0.007 μM, 0.002 μM with one vehicle control. Finally, a detection mix was added containing anti GST-Tb cryptate (CisBio; 610SAXLB) and Streptavidin-XL665 (CisBio; 610SAXLB) as fluorescent donor and acceptor, respectively, as well as the coactivator peptide and LXRβ-LBD protein (SEQ ID NO:4). The reaction was mixed thoroughly, equilibrated for 1 h at 4° C. and vicinity of LXRβ and coactivator peptide was detected by measurement of fluorescence in a VictorX4 multiplate reader (PerkinElmer Life Science) using 340 nm as excitation and 615 and 665 nm as emission wavelengths. Assays were performed in triplicates.
240 mM KCl, 1 μg/μL BSA, 0.002% Triton-X-100, […] anti GST-Tb cryptate, 2.5 ng/μL Streptavidin-XL665, coactivator peptide (400 nM), LXRβ protein (530 μg/mL, i.e. 76 nM).

LXRβ = target: T2, LXRβ (Homo sapiens, UniProt P55055); test: LXR Gal4 reporter transient transfection assay (mammalian two-hybrid, HEK293), LXRβ; assay type: cell-based; design: LXRβ (amino acids 156-461); expressed in transfected cells; host or cells: HEK293; conditions: full length (FL) LXRβ, HEK293; read-out: FL-M2H Gal4β
T2 sequence (P55055 1-460): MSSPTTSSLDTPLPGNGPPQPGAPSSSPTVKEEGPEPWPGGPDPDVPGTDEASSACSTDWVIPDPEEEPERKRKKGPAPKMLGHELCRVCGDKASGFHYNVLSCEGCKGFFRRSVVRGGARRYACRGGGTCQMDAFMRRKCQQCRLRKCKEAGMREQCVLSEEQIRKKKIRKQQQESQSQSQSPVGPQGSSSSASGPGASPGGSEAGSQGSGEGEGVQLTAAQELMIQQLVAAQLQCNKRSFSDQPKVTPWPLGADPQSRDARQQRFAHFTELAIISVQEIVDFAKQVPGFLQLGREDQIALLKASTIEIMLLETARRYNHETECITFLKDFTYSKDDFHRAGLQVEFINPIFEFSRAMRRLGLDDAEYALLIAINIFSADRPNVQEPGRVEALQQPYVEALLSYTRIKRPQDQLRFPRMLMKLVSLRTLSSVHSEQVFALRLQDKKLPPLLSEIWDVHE
Protocol: LXRα and LXRβ activity status was determined via detection of interaction with coactivator and corepressor proteins in mammalian two-hybrid experiments (M2H). For this, via transient transfection the full length (FL) proteins of LXRα (amino acids 1-447; NP005684; SEQ ID NO:1) or LXRβ-(amino acids 1-461; NP009052; SEQ ID NO:2) or the ligand-binding domains (LBD) of LXRα (amino acids 155-447 SEQ ID NO:3) or LXRβ (amino acids 156-461; SEQ ID NO:4) were expressed from pCMV-AD (Stratagene) as fusions to the transcriptional activation domain of NFkB. As cofactors, domains of either the steroid receptor coactivator 1 (SRC1; amino acids 552-887; SEQ ID NO:5) or of the corepressor NCoR (amino acids 1906-2312; NP006302; SEQ ID NO:6) were expressed as fusions to the DNA binding domain of the yeast transcription factor GAL4 (from pCMV-BD; Stratagene). Interaction was monitored via activation of a coexpressed Firefly Luciferase Reporter gene under control of a promoter containing repetitive GAL4 response elements (vector pFRLuc; Stratagene). Transfection efficiency was controlled via cotransfection of constitutively active pRL-CMV Renilla reniformis luciferase reporter (Promega). HEK293 cells were grown in minimum essential medium (MEM) with 2 mM L-glutamine and Earle's balanced salt solution supplemented with 8.3% fetal bovine serum, 0.1 mM non-essential amino acids, 1 mM sodium pyruvate, at 37° C. in 5% CO2. 3.5×10^4 cells/well were plated in 96-well cell culture plates in growth medium supplemented with 8.3% fetal bovine serum for 16-20 h to ˜90% confluency. For transfection, medium was taken off and LXR and cofactor expressing plasmids as well as the reporter plasmids are added in 30 μL OPTIMEM/well including polyethylene-imine (PEI) as vehicle. Typical amounts of plasmids transfected/well: pCMV-AD-LXR (5 ng), pCMV-BD-cofactor (5 ng), pFR-Luc (100 ng), pRL-CMV (0.5 ng). Compound stocks were prepared in DMSO, prediluted in MEM to a total volume of 120 μL, and added 4 h after addition of the transfection mixture (final vehicle concentration not exceeding 0.2%). Cells were incubated for additional 16 h, lysed for 10 min in 1×Passive Lysis Buffer (Promega) and Firefly and Renilla luciferase activities were measured sequentially in the same cell extract using buffers containing D-luciferine and coelenterazine, respectively. Measurements of luminescence were done in a BMG-luminometer.
The potencies of Compound 21/3 and its analog, Compound pre-6/3, against LXRα and LXRβ were evaluated in biochemical binding assays, cellular mammalian two-hybrid (M2H) interaction assays evaluating nuclear receptor co-repressor (NCOR) recruitment, and cellular reporter assays evaluating transcriptional activity (Table 5).

N#Cc1sccc1-c1c(-c2ccccc2)n(S(=O)(=O)c2ccc(CC(=O)O)cc2)c2ccccc12 [27/1]
EC50 [1]: 1000 to 10000 nM

CN1CC(F)(c2ccccc2-c2c(-c3cccc(-c4ccc(C(=O)O)cc4Cl)c3)n(S(=O)(=O)c3ccc(C(F)F)cc3)c3ccc(F)cc23)C1 [3/62]
EC50 [1]: 100 to 1000 nM
EC50 (LXRβ): < 100 nM

COc1cc(C(=O)O)ccc1-c1cccc(-c2c(-c3ccccc3C#N)c3cc(F)ccc3n2S(=O)(=O)c2ccc(C(F)F)cc2)c1 [11/29]
EC50 [1]: < 100 nM
EC50 (LXRβ): < 100 nM

Cc1ccc(S(=O)(=O)n2c(-c3cccc(C45CC(C(=O)O)(C4)C5)c3)c(-c3ccsc3C#N)c3ccccc32)cc1 [5/2]
EC50 [1]: 100 to 1000 nM
EC50 (LXRβ): 100 to 1000 nM

N#Cc1ccccc1-c1c(-c2cccc(-c3ccc(C(=O)O)cc3Cl)c2)n(S(=O)(=O)c2ccc(C(F)F)cc2)c2cccnc12 [8/7]
EC50 [1]: 100 to 1000 nM
EC50 (LXRβ): < 100 nM

Cc1ccc(S(=O)(=O)n2c(-c3cccc(-c4ccc5c(C(=O)O)n[nH]c5c4)c3)c(-c3ccsc3C#N)c3cc(F)ccc32)cc1 [12/9]
EC50 [1]: 100 to 1000 nM
EC50 (LXRβ): 100 to 1000 nM

Cc1ccc(S(=O)(=O)n2c(-c3cccc(N4CC(C(=O)O)C4)c3)c(-c3ccsc3C#N)c3sccc32)cc1 [4/3]
EC50 [1]: 1000 to 10000 nM
EC50 (LXRβ): < 100 nM

N#Cc1sccc1-c1c(-c2cccc(N3CC(C(=O)O)C3)c2)n(S(=O)(=O)c2ccc3ccccc3c2)c2ccc(F)cc12 [3/13]
EC50 [1]: 1000 to 10000 nM
EC50 (LXRβ): < 100 nM

O=C(O)c1ccc(-c2cccc(-c3c(-c4ccsc4C4COC4)c4cc(F)ccc4n3S(=O)(=O)c3ccc(C(F)F)cc3)c2)c(Cl)c1 [3/63]
EC50 [1]: < 100 nM
EC50 (LXRβ): < 100 nM

N#Cc1sccc1-c1c(-c2cccs2)n(S(=O)(=O)c2ccc(Cl)cc2)c2cc(C(=O)O)ccc12 [Compound 19]
EC50 [1]: > 10000 nM

Cc1ccc(S(=O)(=O)n2c(-c3cccc(S(=O)(=O)CC(=O)O)c3)c(-c3ccsc3C#N)c3ccccc32)cc1 [3/15]
EC50 [1]: 1000 to 10000 nM

CCc1ccc(S(=O)(=O)n2c(-c3cccc(N4CC(C(=O)O)C4)c3)c(-c3ccsc3C#N)c3cc(F)ccc32)cc1 [3/10]
EC50 [1]: 100 to 1000 nM
EC50 (LXRβ): < 100 nM

N#Cc1cccc(C#N)c1-c1c(-c2cccc(-c3ccc(C(=O)O)cc3Cl)c2)n(S(=O)(=O)c2ccc(Cl)cc2)c2ccc(F)cc12 [11/55]
EC50 [1]: < 100 nM
EC50 (LXRβ): < 100 nM

Cc1ccc(S(=O)(=O)n2c(-c3cccc(C#CC(C)(C)C(=O)O)c3)c(-c3ccsc3C#N)c3cc(F)ccc32)cc1 [5/4]
EC50 [1]: 1000 to 10000 nM
EC50 (LXRβ): < 100 nM

O=C(O)c1ccc(-c2cccc(-c3c(-c4ccccc4C4COC4)c4cnccc4n3S(=O)(=O)c3ccc(C(F)F)cc3)c2)c(Cl)c1 [8/3]
EC50 [1]: 100 to 1000 nM
EC50 (LXRβ): < 100 nM

N#Cc1cc(C(=O)O)ccc1-c1cccc(-c2c(-c3ccccc3C#N)c3cc(F)ccc3n2S(=O)(=O)c2ccc(C(F)F)cc2)c1 [11/30]
EC50 [1]: < 100 nM
EC50 (LXRβ): < 100 nM

Cc1ccc(S(=O)(=O)n2c(-c3cccc(N4CC(C(=O)O)C4)c3)c(-c3ccsc3CCO)c3cc(F)ccc32)cc1 [3/27]
EC50 [1]: 1000 to 10000 nM
EC50 (LXRβ): 100 to 1000 nM

Cc1ccc(S(=O)(=O)n2c(-c3cccc(N4CCC(C(=O)O)CC4)c3)c(-c3ccsc3C#N)c3cc(F)ccc32)cc1 [3/38]
EC50 [1]: 100 to 1000 nM
EC50 (LXRβ): < 100 nM

CC1CCN(S(=O)(=O)n2c(-c3cccc(-c4ccc(C(=O)O)cc4Cl)c3)c(-c3ccsc3C#N)c3cc(F)ccc32)CC1 [3/21]
EC50 [1]: 100 to 1000 nM
EC50 (LXRβ): < 100 nM

Cc1ccc(S(=O)(=O)n2c(-c3cccc(-c4ccc(C(=O)O)cc4Cl)c3)c(-c3c(C)cccc3C#N)c3cc(F)ccc32)cc1 [11/6]
EC50 [1]: < 100 nM
EC50 (LXRβ): < 100 nM

N#Cc1cccc(C#N)c1-c1c(-c2cccc([C@H]3CC[C@@H](C(=O)O)CC3)c2)n(S(=O)(=O)c2ccc(C(F)F)cc2)c2ccc(F)cc12 [11/61]
EC50 [1]: 100 to 1000 nM
EC50 (LXRβ): < 100 nM

Cc1ccc(S(=O)(=O)n2c(-c3cccc(-c4ccc(C(=O)O)nc4)c3)c(-c3ccsc3C#N)c3cc(F)ccc32)cc1 [3/47]
EC50 [1]: 100 to 1000 nM
EC50 (LXRβ): < 100 nM

Cc1ccc(S(=O)(=O)n2c(-c3cccc(-c4ccc(C(=O)O)cc4Cl)c3)c(-c3cccc(C)c3C#N)c3cc(F)ccc32)cc1 [11/2]
EC50 [1]: < 100 nM
EC50 (LXRβ): < 100 nM

Cc1n[nH]c(C)c1-c1c(-c2cccc(-c3ccc(C(=O)O)cc3Cl)c2)n(S(=O)(=O)c2ccc(C(F)F)cc2)c2ccc(F)cc12 [11/24]
EC50 [1]: 100 to 1000 nM
EC50 (LXRβ): 100 to 1000 nM

N#Cc1sccc1-c1c(-c2ccccc2)n(S(=O)(=O)c2ccc(-c3cccc(C(=O)O)c3)cc2)c2ccccc12 [27/2]
EC50 [1]: 1000 to 10000 nM

N#Cc1sccc1-c1c(-c2cccc(N3CC(C(=O)O)C3)c2)n(S(=O)(=O)c2ccc(OC(F)F)cc2)c2ccc(F)cc12 [3/11]
EC50 [1]: 1000 to 10000 nM

Cn1cnc(S(=O)(=O)n2c(-c3cccc(C4CC4C(=O)O)c3)c(-c3ccsc3C#N)c3ccccc32)c1 (centres unmarked) [30/10]
EC50 [1]: > 10000 nM

CC(O)(C(=O)O)c1ccc(-c2cccc(-c3c(-c4c(C#N)cccc4C#N)c4cc(F)ccc4n3S(=O)(=O)c3ccc(C(F)F)cc3)c2)c(Cl)c1 (centres unmarked) [11/60]
EC50 (LXRβ): < 100 nM

Cc1cccc(C#N)c1-c1c(-c2cccc(-c3ccc(C(=O)O)cc3Cl)c2)n(S(=O)(=O)c2ccc(C(F)F)cc2)c2ccc(F)cc12 [41/1, 2-chloro-3′-(3-(2-cyano-6-methylphenyl)-1-((4-(difluoro-methyl)phenyl)sulfonyl)-5-fluoro-1H-indol-2-yl)-[1,1′-biphenyl]-4-carboxylic acid]
EC50 [1]: < 100 nM

N#Cc1sccc1-c1c(-c2ccccc2)n(S(=O)(=O)c2ccc(CC(=O)O)s2)c2ccccc12 [27/3]
EC50 [1]: > 10000 nM

N#Cc1sccc1-c1c(-c2cccs2)n(S(=O)(=O)c2ccc(Cl)cc2)c2cc(OCC(=O)O)ccc12 [15/3]
EC50 [1]: > 10000 nM

COc1ccc2c(c1)c(-c1ccsc1C#N)c(-c1cccs1)n2S(=O)(=O)c1ccc(Cl)cc1 [1/39]
EC50 [1]: > 10000 nM
